The results in this text go back to patent publication US7332513B2, “Thiazole-based nitric oxide donors having acyl substituent(s) and uses thereof” (priority 2004, dated 2008).

“Also recorded” adds a separate entry of the source.

Test [1] concerns isolated rat aorta. Put plainly: In vitro vasorelaxation, cumulative concentration-response curves on rat aortic rings contracted with epinephrine. The following applies: isolated rat aorta pre-treated with 1 μM epinephrine. The class given is cell-based. The source says: Male Sprague Dawley rats were anaesthetized using intraperitoneal injection of ketamine and xylazine (50 and 10 milligram per kilogram, respectively) and the thoracic aorta, the large upper portion of the descending aorta, starting at the caudal border of the chest bone, was removed thereafter, while carefully removing the paraadventetial tissue surrounding the vessel. Aortae were cut into rings of 4-5 millimeters and mounted onto the tissue path. The path buffer (Krebs-bicrbonate) was constantly gassed with carbogen and maintained at 37° C. The rings were preloaded under 2 g tension and equilibrated for 90 minutes, while refreshing the buffer every 15 minutes. After stabilization, the rings were contracted with epinephrine (1 μM). Cumulative Concentration-Response Curves (CCRC) were measured for the vasorelaxing effect induced by adding various concentrations, ranging from 10^−10 M to 10^−5 M of Pet-2, Pet-3, Pet-7, Pet-8, Pet-12, Pet-24, Pet-43, Pet-59, Pet-147, Pet-152 and Pet-154, and glyceryltrinitrate (GTN), according to the procedure described in Feelich et al., Molecular Pharmacology, 56:243-253 (1999). The vehicle, which was used for this experiment was water:ethanol:propyleneglycol at proportional ratio of 1:1:1.
The vasorelaxing effect of the thiazole-derived NO-donors according to the present invention was measured on slices of thoracic aorta of rats contracted with epinephrine, as described hereinabove.
The obtained results for Pet-2, Pet-3, Pet-7, Pet-8, Pet-12, Pet-24, Pet-43, Pet-59, Pet-147, Pet-152 and Pet-154 are presented in FIGS. 2-14, and are summarized in Table 3 below.

The subject of test [2] is cGMP in thoracic aorta of rats treated in vivo. Put plainly: Induction of in vivo nitrate tolerance (16 hour infusion, then cGMP in isolated aorta). The following applies: rats infused in vivo 16 hours, aorta re-exposed to the compound. The arrangement: species or system rat. On the procedure:
Male Sprague Dawley rats (220 to 250 grams) were housed under constant temperature and humidity conditions. Light was maintained at a 12/12 light dark cycle. Except for 12 hours before the experiment, when food fasting was initiated, all rats had free access to standard rat pellet diet and tap water. The animals were anesthetized by intraperitoneal injection of ketamine and xylazine combination (50 and 10 milligram per kilogram, respectively). […] The catheters were filled with normal saline solution containing 1000 IU/ml of heparin and plugged with a metal pin. Catheters were externalized to the back of the neck region and secured by a polyester felt disk.
After implantation, the rats were individually housed until they regained their preoperative weight and appeared healthy (3 to 4 days post-operation). At this time point (day 0), an osmotic mini-pump (Alza Corp., Palo Alto, Calif.) delivering constant volume (10 μl/hour) of vehicle or drug was connected to one of the intravenous catheters.
For inducing tolerance to the tested NO-donor according to the present invention, the animals received 200 μg/hour of the tested compound for 16 hours (short-term-induced tolerance). A similar number of animals were processed by the same surgical procedure and received the vehicle alone (10 μl/hour of a solution consisting of 30% ethanol and 30% propylene glycol in sterile distilled water for injection).
At the end of the infusion periods used for the development of tolerance (16 hour), the rats were anesthetized as described above, the two catheters were externalized and the delivering catheters were disconnected from the mini-pump. The abdomen was opened by midline incision and the thoracic aorta were isolated, washed and cleaned from the surrounding tissues. Strips of the treated aortas were pooled in chambers containing Krebs-Hanseliet buffer (10 ml), and exposed to 1 μM of the tested NO-donor (final concentration) for 120 seconds. The tissues were quickly collected and frozen in liquid nitrogen for cGMP measurement, described hereinabove.

Test [3] has as its system c-GMP in slices of thoracic aorta of rats. Put plainly: Cyclic-GMP measurement in aortic rat tissue (radioimmunoassay). Particulars: for cGMP Post-infusion: rat aorta, post-infusion (repeated treatment). The class given is cell-based. On the procedure: GTN (10^−6 M) was added to the chamber and, 1 minute after exposure to the drug, rings (usually 3-5) were taken, wrapped with aluminum foil and immediately frozen in liquid nitrogen for storage. Control sample group was treated with the vehicle solution only. At the time of analysis, rings were thawed, blotted over a dry gauzed and weighted. A known weight of tissue was homogenized in 2 ml ice-cold modified Hank's balanced salt solution containing (in gram/liter) NaCl 8; KCl 0.4; glucose 1; KH2PO4 0.06; Na2HPO4 0.047; Phenol red 0.017 and further containing 25 mM EDTA (disodium salt). The homogenate was centrifuged at 4000 g (force units) for 10 minutes at 2-4° C. and the supernatant was thereafter transferred into fresh pre-cooled test tube containing 1 ml of acetonitrile. The tubes were vortex mixed for a few seconds and subsequently centrifuged at 4000 g for 5 minutes at 2-4° C., to remove the precipitated protein. Each supernatant was transferred into a clean test tube and evaporated to dryness under a stream of nitrogen at 55° C. The dry residue was reconstituted with 10 volumes of Tris-EDTA buffer pH 7.5 (0.05 M Tris containing 4 mM EDTA). Aliquots of 100 μl of the reconstituted solution in duplicate were used for c-GMP measurements using Amersham RIA kit, as is described in Haj-Yehia & Benet [Pharmacology, 1995, 273, 1, pp. 94-100]. Standard curves were plotted with six concentrations (0, 0.5, 1, 2, 4 and 8 pmoles of c-GMP per tube).
The NO-tolerance effect of GTN and NO-donor compounds according to the present invention was measured by following the production of c-GMP in slices of thoracic aorta of rats. Thus, the production of c-GMP was measured as described in the methods section above for the reference NO-donor compound GTN, and for the NO-donors of the present invention Pet-2, Pet-3, Pet-7, Pet-8, Pet-10, Pet-12, Pet-24, Pet-59, Pet-147, Pet-149, Pet-152, Pet-154 and Pet-155.

For test [4], the system named is anesthetized hypertensive Sprague-Dawley male rats. Put plainly: Hypotensive effects: mean arterial pressure after iv bolus in phenylephrine-treated rats. The class given is in vivo, rat. The following applies: for hypotensive / vasorelaxation effect on heightened mean arterial blood pressure: rats pre-treated in vivo with phenylephrine, iv bolus 10-100 micrograms. The source says: These techniques were also used to detect tolerance induction by the NO-donors of the present invention and by GTN. For c-GMP levels and tolerance development, the rat's thoracic aorta was isolated after exposure to the tested compound in vivo, and measured as described above in the in vitro assays.
Mean arterial pressure (MAP) was monitored and determined during bolus infusion of Pet-2, Pet-3, Pet-7, Pet-8, Pet-12 and Pet-13. Briefly, polyethylene catheters (PE50) were inserted into the carotid artery and into the jugular vein of anesthetized hypertensive Sprague-Dawley male rats (200-300 grams). A blood pressure recorder was placed within the carotid artery. Phenylephrine (0.1 mg) was then injected and the mean arterial blood pressure (MABP) was monitored continuously until a stable baseline was reached. The hypotensive effects of intravenous (iv) bolus doses (0.1 mg of each tested compound) administered intravenously at the jugular vein in minimal volume of vehicle (0.2 ml per dose) were evaluated. Five minutes were allowed between each dose, during which the maximal decrease in MAP was recorded and a dose-response graph comparing the hypotensive effect of the compounds was constructed.

The test system of test [5] is isolated rat aorta. Put plainly: In vitro induction of tolerance to NO releasing compounds (vasorelaxation of pre-exposed aortic rings, incl. cross-tolerance). The class given is cell-based. Particulars: for tolerance induction after pre-treatment with the same compound: rat aorta pre-treated with epinephrine and then 0.44 mM of the compound. The method, then:
Aortic rings were prepared as described hereinabove, and were exposed to 0.44 mM GTN (vehicle was water:ethanol:propyleneglycol at proportional ratio of 1:1:1) for 1 hour before CCRC construction, to thereby induce tolerance to nitroglycerine. At the end of the tolerance induction period, rings were thrice washed with the path buffer (Krebs-bicrbonate) every 15 minutes for the following hour and then CCRC for vasorelaxation on GTN-induced tolerance rings were constructed for GTN (pretreated versus untreated rings, FIG. 15), in order to verify the ability to induce and measure GTN tolerance induction in vitro
Attempted induction of tolerance to the NO-donating compounds of the present invention was performed under the same conditions as for GTN. Thus, in an exemplary experiment, rings were exposed to 0.44 mM solution of Pet-3 in the attempt to induce tolerance for Pet-3. CCRC were then measured for the vasorelaxing effect of Pet-3 on a group of rings which were pre-exposed to Pet-3 as to induce tolerance to Pet-3, and for an untreated control group. The above protocol was repeated with Pet-2, Pet-7, Pet-8, Pet-12, Pet-24, Pet-43, Pet-149 and Pet-152.
Cross-tolerance studies were conducted using the same technique described above for measuring vasorelaxation of aortic rings from rats. Two groups of aortic rings samples were pre-treated with GTN, then one group was measured for vasorelaxation by GTN and the second group for vasorelaxation by Pet-12, an exemplary NO-donor according to the present invention. For the opposite cross-tolerance studies, two groups of aortic rings samples were pre-treated with Pet-12, then one group was measured for vasorelaxation by GTN and the second group for vasorelaxation by Pet-12.

Consider `CCc1nc(C)c(CCO[N+](=O)[O-])s1` [Pet-2, 2-Ethyl-4-methyl-5-(2-nitrooxy-ethyl)-thiazole], for which the “vasorelaxation effect as compared with glyceryltrinitrate (words)” value in the test with isolated rat aorta [1] is “superior vasorelaxation effect”. Besides, the “tolerance in vivo: cGMP level in aorta following repeated treatment” value (“tolerance in vivo: cGMP level” for short) in test [2] was “absence of tolerance induction; also recorded: absence of tolerance effect; also recorded: remained substantially unchanged”. For the same molecule, the “cGMP Post-infusion” value in test [3] came out at 140 ± 13 pmol/g tissue.
On to `Cc1nc(N(C)C)sc1CCO[N+](=O)[O-]` [Pet-7, Dimethyl-[4-methyl-5-(2-nitrooxy-ethyl)-thiazol-2-yl]-amine], for which, in the test with isolated rat aorta [1], the “vasorelaxation effect as compared with glyceryltrinitrate” value stood at 10 fold and the “vasorelaxation effect as compared with glyceryltrinitrate (words)” value is “superior”. For the same molecule, the “hypotensive / vasorelaxation effect on heightened mean arterial blood pressure” value in test [4] is “vasorelaxation effect”. Moreover, the “tolerance induction after pre-treatment with the same compound” value (from here on “tolerance induction after pre-treatment”) with isolated rat aorta [5] is listed as “absence of tolerance induction”. The “levels of cGMP as compared with GTN” value in test [3] (isolated rat aorta, FIGS. 25, 27, 33) is “increased levels of cGMP”. Besides, in test [3], the “cGMP Post-infusion” value worked out at 123 ± 12 pmol/g tissue.
`Cc1nc(-c2cccnc2)sc1CCO[N+](=O)[O-]` [Pet-12, 3-[4-Methyl-5-(2-nitrooxy-ethyl)-thiazole-2-yl]-pyridine]: in test [2], the “tolerance in vivo: cGMP level” value was “absence of tolerance induction; also recorded: absence of tolerance effect; also recorded: lack of tolerance induction”. Also, the “hypotensive / vasorelaxation effect on heightened mean arterial blood pressure” value in test [4] is on record as “vasorelaxation effect”. Besides, in the test on isolated rat aorta [5], the “tolerance induction after pre-treatment” value is recorded as “absence of tolerance induction”. Also, in the test with isolated rat aorta [5] (rat aorta pre-treated with epinephrine and then with GTN), the “vasorelaxation in rings pre-treated with GTN (cross-tolerance)” value was “absence of tolerance induction effect; also recorded: no effect on the vasorelaxation capacity”. Further, in the test on isolated rat aorta [5] (rat aorta pre-treated with epinephrine and then with Pet-12), the “vasorelaxation in rings pre-treated with Pet-12 (cross-tolerance)” value is reported as “absence of tolerance induction effect; also recorded: does not evoke tolerance to itself not to GTN”. Moreover, the “cGMP Post-infusion” value in test [3] turned out to be 112 ± 12 pmol/g tissue.
For the molecule `O=[N+]([O-])OCC(CO[N+](=O)[O-])O[N+](=O)[O-]` [GTN, glyceryl trinitrate, reference compound], in test [2], the “tolerance in vivo: cGMP level” value is reported as “tolerance inducing effect; also recorded: decreased”. Besides, the “effect on MAP following successive administrations” value in test [4] (iv bolus doses, rats) is recorded as “attenuation”. Moreover, in the test with isolated rat aorta [5], the “tolerance induction after pre-treatment” value was “tolerance induced”. Moreover, in test [3], the “cGMP Post-infusion” value is recorded as 45 ± 12^¥ pmol/g tissue. In addition, the “c-GMP level following a repeated treatment” value in test [3] (slices of thoracic aorta of rats) is listed as “significantly reduced”.
